Data published in ChEMBL document CHEMBL1130306, “Asymmetric synthesis of a conformationally constrained N-phosphonoalkyl dipeptide” (Bioorg Med Chem Lett, 1997).
Activity calls are given as the source filed them.

Assays:
[1] = molecular target: T1, Interstitial collagenase (Homo sapiens) (UniProt P03956); experiment: Inhibition of human recombinant fibroblast collagenase (MMP-1) at 10e-4 M (No significant activity)
T1 sequence (whole entry): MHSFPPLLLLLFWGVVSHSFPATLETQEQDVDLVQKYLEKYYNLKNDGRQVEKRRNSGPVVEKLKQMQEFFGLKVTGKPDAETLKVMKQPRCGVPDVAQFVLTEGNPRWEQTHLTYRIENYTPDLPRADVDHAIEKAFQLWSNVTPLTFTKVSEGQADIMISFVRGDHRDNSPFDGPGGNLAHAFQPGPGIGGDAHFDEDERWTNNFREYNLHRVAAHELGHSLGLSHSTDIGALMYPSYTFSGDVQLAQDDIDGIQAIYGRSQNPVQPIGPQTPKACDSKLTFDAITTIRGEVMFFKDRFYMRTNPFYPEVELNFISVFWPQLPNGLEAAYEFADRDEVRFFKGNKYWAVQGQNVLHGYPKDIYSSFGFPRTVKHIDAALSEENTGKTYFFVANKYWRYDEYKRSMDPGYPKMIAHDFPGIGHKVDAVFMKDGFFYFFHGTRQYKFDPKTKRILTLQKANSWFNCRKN

[2] = molecular target: 72 kDa type IV collagenase (Homo sapiens) (UniProt P08253); experiment: Inhibition of human recombinant gelatinase-A (MMP-2) at 10e-4 M (No significant activity)
[3] = molecular target: Matrix metalloproteinase-9 (Homo sapiens) (UniProt P14780); experiment: Inhibition of human recombinant Matrix metalloprotease-9 at 10e-4 M (No significant activity)

Measured: Activity

Chain of Matrix metalloproteinase-9 (Homo sapiens) (P14780 whole entry): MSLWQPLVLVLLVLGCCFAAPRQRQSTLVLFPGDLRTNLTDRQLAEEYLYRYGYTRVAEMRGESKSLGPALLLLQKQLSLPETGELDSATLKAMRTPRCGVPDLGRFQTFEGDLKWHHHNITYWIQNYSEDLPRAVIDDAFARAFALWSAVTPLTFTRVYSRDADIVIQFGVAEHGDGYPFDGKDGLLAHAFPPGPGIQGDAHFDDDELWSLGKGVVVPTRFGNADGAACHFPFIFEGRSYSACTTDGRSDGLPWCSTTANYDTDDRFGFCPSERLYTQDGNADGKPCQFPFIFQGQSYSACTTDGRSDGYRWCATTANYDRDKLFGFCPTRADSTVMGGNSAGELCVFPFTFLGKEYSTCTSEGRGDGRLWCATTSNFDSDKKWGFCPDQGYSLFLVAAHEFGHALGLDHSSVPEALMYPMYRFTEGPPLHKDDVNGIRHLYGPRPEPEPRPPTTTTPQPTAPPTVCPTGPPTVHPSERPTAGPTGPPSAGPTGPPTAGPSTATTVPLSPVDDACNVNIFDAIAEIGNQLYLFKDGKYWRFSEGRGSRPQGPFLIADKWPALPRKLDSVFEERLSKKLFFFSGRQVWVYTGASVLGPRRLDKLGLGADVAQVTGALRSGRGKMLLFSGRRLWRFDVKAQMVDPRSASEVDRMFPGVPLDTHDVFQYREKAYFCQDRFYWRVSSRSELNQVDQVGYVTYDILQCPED
Chain of 72 kDa type IV collagenase (Homo sapiens) (P08253 110-660 limits assumed): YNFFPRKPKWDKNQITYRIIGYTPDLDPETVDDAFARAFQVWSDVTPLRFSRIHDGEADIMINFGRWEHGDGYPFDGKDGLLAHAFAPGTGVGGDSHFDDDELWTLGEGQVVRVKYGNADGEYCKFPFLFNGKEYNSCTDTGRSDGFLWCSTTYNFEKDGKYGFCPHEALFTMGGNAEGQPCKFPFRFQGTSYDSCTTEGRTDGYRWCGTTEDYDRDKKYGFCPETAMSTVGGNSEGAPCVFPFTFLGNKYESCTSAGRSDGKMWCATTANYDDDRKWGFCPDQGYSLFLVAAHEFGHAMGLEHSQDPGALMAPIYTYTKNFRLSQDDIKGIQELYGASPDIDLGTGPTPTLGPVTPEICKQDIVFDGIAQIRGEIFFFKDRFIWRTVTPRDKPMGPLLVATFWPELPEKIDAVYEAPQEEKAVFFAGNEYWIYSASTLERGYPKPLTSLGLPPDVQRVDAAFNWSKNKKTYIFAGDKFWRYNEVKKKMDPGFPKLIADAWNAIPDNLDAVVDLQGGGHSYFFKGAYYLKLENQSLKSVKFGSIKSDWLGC

CNC(=O)[C@H](Cc1c[nH]c2ccccc12)NC(=O)[C@H]1CCC[C@@H](P(=O)(O)O)N1
inactive: [1] | [2] | [3]

CNC(=O)[C@H](Cc1c[nH]c2ccccc12)NC(=O)[C@@H]1CCC[C@@H](P(=O)(O)O)N1
inactive: [1] | [2] | [3]
